Measurements reported in patent publication US20250313648A1, “Binders of Chondroitin Sulfate Proteoglycan (CSPG4) Polypeptides” (Regents of the University of Minnesota, priority 2021, published 2025).

Tests used:
[1] = test system: ZEB1 expression in HEY cells; assay: Western blot for pFAK, FAK and ZEB1 after FAK inhibitor treatment; format: cell-based, human; conditions: normal growth medium, 24 hours, vs DMSO
Method: FIGS. 9A-9J. CSPG4 expression is associated with epithelial-to-mesenchymal plasticity, mediated by CSPG4 associated changes in ZEB1 expression. FIG. 9A) The indicated cell lines both Mock(M) and CRISPR(C) were cultured separately in spheroid formation assays for 7 days, collected and analyzed by western blot for various EMT markers. FIG. 9B) Western blot for Zebl and CSPG4 expression in EOC cell lines treated with siRNA for ZEB1 or control for 48 hours. FIG. 9C) Western blot for pFAK, FAK and ZEB1 in HEY cells treated with either DMSO (control) or FAK inhibitor PND-1186 at the indicated concentrations in normal growth medium for 24 hours. FIG. 9D) Spheroid formation in methylcellulose of EOC cell lines treated with siRNA to ZEB1 or control for 7 days. Bars represent spheroid counts from five random fields/well from triplicate wells+/−S.D. *p<0.02 by students t-test with Welch's correction. n=3 from 3 individual experiments. FIG. 9E) Invasion assay of EOC cells treated with ZEB1 siRNA or control siRNA (methods). *p<0.002 by student's t-test with Welch's correction. n=3 from 3 individual experiments. FIGS. 9F and 9G) Cells were transfected with control or ZEB1 siRNA overnight and plated in the cisplatin cytotoxicity assay the following day. MTS data was collected after 4 days of cisplatin treatment. […]

[2] = test system: ES-2, HEY, A2780 mock and CSPG4 knockout cells; assay: Cisplatin cytotoxicity assay (MTS); format: cell-based, human; conditions: CSPG4 knockout vs mock, three cell lines (A2780, HEY, ES-2), 96 hours of treatment
Excerpt: FIGS. 5A-5G. CSPG4 knockout results in significant loss of invasive capacity and cisplatin resistance in multiple ovarian tumor cell lines. Invasion assays using control (Mock) and CSPG4 knockout (CRISPR) HEY cells (FIG. 5A) or A2780 cells (FIG. 5B). Bars represent the total number of invading cells from five random fields/well from triplicate wells, +/−S.D., from three replicate experiments, n=6. P values determined by student's t-test with Welch's correction. […] Lanes: 1—ES-2 Parent, 2—ES-2 Mock, 3—ES-2 CSPG4 knockout, 4—ES-2 CSPG4 Rescue. […] Invasive capacity is rescued in the ES-2 CRISPR knockout line with CSPG4 re-expression (Rescue). P values determined by student's t-test with Welch's correction. FIGS. 5E-G show the cell viability of mock and knockout (CRISPR) A2780 cells (FIG. 5E), mock and knockout HEY cells (FIG. 5F), and mock, knockout and rescue ES-2 cells (FIG. 5G) treated with increasing concentrations of cisplatin. Dose response curves were plotted as the percent of MTS staining vs. untreated cells for each cell line +/−s.e.m. from three replicate experiments (n=9). The phenotype was rescued by re-expression of CSPG4 in the ES-2 CRISPR cells (ES-2 Rescue, in FIG. 5G).
Cisplatin cytotoxicityAssay: Cisplatin stock (3.3 mM) was diluted with growth medium to the required concentrations before each experiment. […] Absorbance at 570 nm was collected on a Tecan 200 plate reader. […]

SMILES	ZEB1 expression [1]	reduction in the IC50 for the knockout cell lines [2]
CNC(=O)c1ccccc1Nc1cc(Nc2ccc(N3CCOCC3)cc2OC)ncc1C(F)(F)F [PND-1186]	inhibited	
N.N.[Cl][Pt][Cl] [cisplatin, Cisplatin]		3.6-to-8.8 fold
